Data taken from patent US4336375A, “Cephalosporanic acid derivatives” (American Cyanamid Company, priority 1980, dated 1982).
Values after ≈ are worked out from the molar mass of the structure shown. Read-outs that look alike come from different tables or passages of the source.

How the values were obtained:
Format in all cases: cell-based
Proteus rettgeri N76-1 = test: In vitro MIC, agar dilution, Proteus rettgeri N76-1; conditions: Providencia rettgeri, read-out: Minimal Inhibitory Concentration
Procedure: (§1) The in vitro activity of representative compounds of the present invention are given in the following Table I in terms of minimal inhibitory concentration. The test used was the standard agar dilution test using a Steers multiple inocula replicator and incubating at 35° C. for 18 hours in conventional nutrient agar.

[1] = test system: Staphylococcus aureus Q74-6; test: In vitro MIC, agar dilution, Staphylococcus aureus Q74-6; conditions: read-out: Minimal Inhibitory Concentration
Procedure: as §1

Escherichia coli OSU75-1 = test: In vitro MIC, agar dilution, Escherichia coli OSU75-1; conditions: OSU751, 35° C., 18 hours, nutrient agar, read-out: Minimal Inhibitory Concentration
Procedure: as §1

[2] = test system: Pseudomonas aeruginosa G236; test: In vitro MIC, agar dilution, Pseudomonas aeruginosa G236; conditions: read-out: Minimal Inhibitory Concentration
Procedure: as §1

[3] = test system: Klebsiella pneumoniae MA75-1; test: In vitro MIC, agar dilution, Klebsiella pneumoniae MA75-1; conditions: read-out: Minimal Inhibitory Concentration
Procedure: as §1

Escherichia coli 311 = test: In vitro MIC, agar dilution, Escherichia coli 311; conditions: 35° C., 18 hours, nutrient agar, read-out: Minimal Inhibitory Concentration
Procedure: as §1

[4] = test system: Klebsiella pneumoniae W75-2; test: In vitro MIC, agar dilution, Klebsiella pneumoniae W75-2; conditions: read-out: Minimal Inhibitory Concentration
Procedure: as §1

[5] = test system: Staphylococcus aureus Q74-1; test: In vitro MIC, agar dilution, Staphylococcus aureus Q74-1; conditions: read-out: Minimal Inhibitory Concentration
Procedure: as §1

Escherichia coli W75-1 = test: In vitro MIC, agar dilution, Escherichia coli W75-1; conditions: W751, 35° C., 18 hours, nutrient agar, read-out: Minimal Inhibitory Concentration
Procedure: as §1

Proteus vulgaris N74-1 = test: In vitro MIC, agar dilution, Proteus vulgaris N74-1; conditions: N741, 35° C., 18 hours, nutrient agar, read-out: Minimal Inhibitory Concentration
Procedure: as §1

[6] = test system: Enterobacter cloacae OSU75-2; test: In vitro MIC, agar dilution, Enterobacter cloacae OSU75-2; conditions: read-out: Minimal Inhibitory Concentration
Procedure: as §1

Enterococcus SM77-15 = test: In vitro MIC, agar dilution, Enterococcus SM77-15; conditions: read-out: Minimal Inhibitory Concentration
Procedure: as §1

Serratia marcens K77-1 = test: In vitro MIC, agar dilution, Serratia marcens K77-1; conditions: read-out: Minimal Inhibitory Concentration
Procedure: as §1

[7] = test system: Escherichia coli ESS22-31; test: In vitro MIC, agar dilution, Escherichia coli ESS22-31; conditions: read-out: Minimal Inhibitory Concentration
Procedure: as §1

[8] = test system: Enterobacter aerogenes UR76-3; test: In vitro MIC, agar dilution, Enterobacter aerogenes UR76-3; conditions: Klebsiella aerogenes, read-out: Minimal Inhibitory Concentration
Procedure: as §1

Serratia K101 = test: In vitro MIC, agar dilution, Serratia K101; conditions: read-out: Minimal Inhibitory Concentration
Procedure: as §1

[9] = test system: Klebsiella pneumoniae W75-4; test: In vitro MIC, agar dilution, Klebsiella pneumoniae W75-4; conditions: read-out: Minimal Inhibitory Concentration
Procedure: as §1

[10] = test system: Pseudomonas aeruginosa PD05141; test: In vitro MIC, agar dilution, Pseudomonas aeruginosa PD05141; conditions: read-out: Minimal Inhibitory Concentration
Procedure: as §1

[11] = test system: Enterobacter cloacae MA75-1; test: In vitro MIC, agar dilution, Enterobacter cloacae MA75-1; conditions: read-out: Minimal Inhibitory Concentration
Procedure: as §1

Serratia marcens QHC77-2 = test: In vitro MIC, agar dilution, Serratia marcens QHC77-2; conditions: read-out: Minimal Inhibitory Concentration
Procedure: as §1

[12] = test system: Pseudomonas aeruginosa 12-4-4; test: In vitro MIC, agar dilution, Pseudomonas aeruginosa 12-4-4; conditions: read-out: Minimal Inhibitory Concentration
Procedure: as §1

Proteus morganii K72 = test: In vitro MIC, agar dilution, Proteus morganii K72; conditions: Morganella morganii, read-out: Minimal Inhibitory Concentration
Procedure: as §1

Klebsiella pneumoniae AD = test: In vitro MIC, agar dilution, Klebsiella pneumoniae AD; conditions: read-out: Minimal Inhibitory Concentration
Procedure: as §1

[13] = test system: Pseudomonas aeruginosa UCS 76-13; test: In vitro MIC, agar dilution, Pseudomonas aeruginosa UCS 76-13; conditions: read-out: Minimal Inhibitory Concentration
Procedure: as §1

[14] = test system: Klebsiella pneumoniae UR76-1; test: In vitro MIC, agar dilution, Klebsiella pneumoniae UR76-1; conditions: read-out: Minimal Inhibitory Concentration
Procedure: as §1

[15] = N761, Proteus rettgeri N76-1, agar dilution, 35° C., 18 hours, nutrient agar
[16] = Q746, Staphylococcus aureus Q74-6, agar dilution, 35° C., 18 hours, nutrient agar
[17] = Pseudomonas aeruginosa G236, agar dilution, 35° C., 18 hours, nutrient agar
[18] = MA751, Klebsiella pneumoniae MA75-1, agar dilution, 35° C., 18 hours, nutrient agar
[19] = W752, Klebsiella pneumoniae W75-2, agar dilution, 35° C., 18 hours, nutrient agar
[20] = Q741, Staphylococcus aureus Q74-1, agar dilution, 35° C., 18 hours, nutrient agar
[21] = OSU752, Enterobacter cloacae OSU75-2, agar dilution, 35° C., 18 hours, nutrient agar
[22] = SM7715, Enterococcus SM77-15, agar dilution, 35° C., 18 hours, nutrient agar
[23] = K771, Serratia marcens K77-1, agar dilution, 35° C., 18 hours, nutrient agar
[24] = ESS2231, Escherichia coli ESS22-31, agar dilution, 35° C., 18 hours, nutrient agar
[25] = UR763, Enterobacter aerogenes UR76-3, agar dilution, 35° C., 18 hours, nutrient agar
[26] = Serratia K101, agar dilution, 35° C., 18 hours, nutrient agar
[27] = W754, Klebsiella pneumoniae W75-4, agar dilution, 35° C., 18 hours, nutrient agar
[28] = Pseudomonas aeruginosa PD05141, agar dilution, 35° C., 18 hours, nutrient agar
[29] = Enterobacter cloacae, MA751, 18 h
[30] = QHC772, Serratia marcens QHC77-2, agar dilution, 35° C., 18 hours, nutrient agar
[31] = 1244, Pseudomonas aeruginosa 12-4-4, agar dilution, 35° C., 18 hours, nutrient agar
[32] = Proteus morganii K72, agar dilution, 35° C., 18 hours, nutrient agar
[33] = Klebsiella pneumoniae AD, agar dilution, 35° C., 18 hours, nutrient agar
[34] = UCS7613, Pseudomonas aeruginosa UCS 76-13, agar dilution, 35° C., 18 hours, nutrient agar
[35] = UR761, Klebsiella pneumoniae UR76-1, agar dilution, 35° C., 18 hours, nutrient agar

| Compound | MIC (Proteus rettgeri N76-1; [15]) | MIC [1, 16] | MIC (Escherichia coli OSU75-1) | MIC [2, 17] | MIC [3, 18] | MIC (Escherichia coli 311) | MIC [4, 19] | MIC [5, 20] | MIC (Escherichia coli W75-1) | MIC (Proteus vulgaris N74-1) | MIC [6, 21] | MIC (Enterococcus SM77-15; [22]) | MIC (Serratia marcens K77-1; [23]) | MIC [7, 24] | MIC [8, 25] | MIC (Serratia K101; [26]) | MIC [9, 27] | MIC [10, 28] | MIC [11, 29] | MIC (Serratia marcens QHC77-2; [30]) | further results |
| --- | --- | --- | --- | --- | --- | --- | --- | --- | --- | --- | --- | --- | --- | --- | --- | --- | --- | --- | --- | --- | --- |
| CCN1CCN(C(=O)NC(C(=O)NC2C(=O)N3C(C(=O)O)=C(CSc4n[nH]c(-n5cccn5)n4)CS[C@H]23)c2ccc(O)cc2)C(=O)C1=O (some centres unmarked) [Compound VI, 7-[2-(4-Ethyl-2,3-dioxo-1-piperazinecarboxamido)-2-(p-hydroxyphenyl)acetamido]-3-[5-(1-pyrazolyl)-1,2,4-triazol-3-ylthiomethyl]-3-cephem-4-carboxylic acid] | 16 µg/mL (≈ 23 µM) | 8 µg/mL (≈ 11.5 µM) | 2 µg/mL (≈ 2.87 µM) | 32 µg/mL (≈ 45.9 µM) | 2 µg/mL (≈ 2.87 µM) | 1 µg/mL (≈ 1.44 µM) | 4 µg/mL (≈ 5.74 µM) | 4 µg/mL (≈ 5.74 µM) | 2 µg/mL (≈ 2.87 µM) | 16 µg/mL (≈ 23 µM) | 64 µg/mL (≈ 91.9 µM) | > 128 µg/mL | > 128 µg/mL | ≤ 0.12 µg/mL | 0.5 µg/mL (≈ 0.718 µM) | 128 µg/mL (≈ 184 µM) | 32 µg/mL (≈ 45.9 µM) | 64 µg/mL (≈ 91.9 µM) | > 128 µg/mL | > 128 µg/mL | MIC [12, 31]: 16 µg/mL (≈ 23 µM); MIC (Proteus morganii K72; [32]): 32 µg/mL (≈ 45.9 µM); MIC (Klebsiella pneumoniae AD; [33]): 0.5 µg/mL (≈ 0.718 µM); MIC [13, 34]: 64 µg/mL (≈ 91.9 µM); MIC [14, 35]: 16 µg/mL (≈ 23 µM) |
| CCN1CCN(C(=O)NC(C(=O)NC2C(=O)N3C(C(=O)O)=C(CSc4nnc(-n5cccn5)n4N)CS[C@H]23)c2ccc(O)cc2)C(=O)C1=O (some centres unmarked) [Compound VII, 7-[2-(4-Ethyl-2,3-dioxo-1-piperazinecarboxamido)-2-(p-hydroxyphenyl)acetamido]-3-[4-amino-5-(1-pyrazolyl)-1,2,4-triazol-3-ylthiomethyl]-3-cephem-4-carboxylic acid] | 8 µg/mL (≈ 11.2 µM) | 4 µg/mL (≈ 5.62 µM) | 1 µg/mL (≈ 1.41 µM) | 32 µg/mL (≈ 45 µM) | 1 µg/mL (≈ 1.41 µM) | 0.5 µg/mL (≈ 0.703 µM) | 2 µg/mL (≈ 2.81 µM) | 2 µg/mL (≈ 2.81 µM) | 1 µg/mL (≈ 1.41 µM) | 32 µg/mL (≈ 45 µM) | 16 µg/mL (≈ 22.5 µM) | 128 µg/mL (≈ 180 µM) | 64 µg/mL (≈ 89.9 µM) | ≤ 0.12 µg/mL | 0.25 µg/mL (≈ 0.351 µM) | 32 µg/mL (≈ 45 µM) | 32 µg/mL (≈ 45 µM) | 64 µg/mL (≈ 89.9 µM) | – | 128 µg/mL (≈ 180 µM) | MIC ([11]; MA751, Enterobacter cloacae MA75-1, agar dilution, 35° C., 18 hours, nutrient agar): > 128 µg/mL; MIC [12, 31]: 16 µg/mL (≈ 22.5 µM); MIC (Proteus morganii K72; [32]): 32 µg/mL (≈ 45 µM); MIC (Klebsiella pneumoniae AD; [33]): 1 µg/mL (≈ 1.41 µM); MIC [13, 34]: 64 µg/mL (≈ 89.9 µM); MIC [14, 35]: 16 µg/mL (≈ 22.5 µM) |
| CC(=O)OCC1=C(C(=O)O)N2C(=O)[C@@H](NC(=O)Cc3cccs3)[C@H]2SC1 [Compound X, Cephalothin, reference compound] | – | – | 8 µg/mL (≈ 20.2 µM) | – | – | 4 µg/mL (≈ 10.1 µM) | – | – | 8 µg/mL (≈ 20.2 µM) | – | – | – | – | – | – | – | – | – | > 128 µg/mL | – | MIC (Proteus rettgeri N76-1; N761, 18 h): > 128 µg/mL; MIC ([1]; Staphylococcus aureus, Q746, 18 h): 0.12 µg/mL (≈ 0.303 µM); MIC ([2]; Pseudomonas aeruginosa, G236, 18 h): > 128 µg/mL; MIC ([3]; Klebsiella pneumoniae, MA751, 18 h): 1 µg/mL (≈ 2.52 µM); MIC ([4]; Klebsiella pneumoniae, W752, 18 h): 2 µg/mL (≈ 5.04 µM); MIC ([5]; Staphylococcus aureus, Q741, 18 h): ≤ 0.06 µg/mL; MIC ([6]; Enterobacter cloacae, OSU752, 18 h): > 128 µg/mL; MIC (Enterococcus SM77-15; Enterococcus, SM7715, 18 h): 32 µg/mL (≈ 80.7 µM); MIC (Serratia marcens K77-1; Serratia, K771, 18 h): > 128 µg/mL; MIC ([7]; Escherichia coli, ESS2231, 18 h): ≤ 0.06 µg/mL; MIC ([8]; UR763, 18 h): 2 µg/mL (≈ 5.04 µM); MIC (Serratia K101; Serratia, K101, 18 h): > 128 µg/mL; MIC ([9]; Klebsiella pneumoniae, W754, 18 h): 8 µg/mL (≈ 20.2 µM); MIC ([10]; Pseudomonas aeruginosa, PD05141, 18 h): > 128 µg/mL; MIC (Serratia marcens QHC77-2; Serratia, QHC772, 18 h): > 128 µg/mL; MIC ([12]; Pseudomonas aeruginosa, 1244, 18 h): > 128 µg/mL; MIC (Proteus morganii K72; K72, 18 h): > 128 µg/mL; MIC (Klebsiella pneumoniae AD; Klebsiella pneumoniae, 18 h): 2 µg/mL (≈ 5.04 µM); MIC ([13]; Pseudomonas aeruginosa, UCS7613, 18 h): > 128 µg/mL; MIC ([14]; Klebsiella pneumoniae, UR761, 18 h): 8 µg/mL (≈ 20.2 µM) |
